Drawing on patent publication US20210094971A1, “HETEROCYCLIC COMPOUNDS” (Hoffmann-La Roche Inc., priority 2019, published 2021), this text covers IC50 for 20 compounds.

In this assay the target is T1, MAGL (Homo sapiens, UniProt Q99685).
T1 sequence (Q99685 1-303): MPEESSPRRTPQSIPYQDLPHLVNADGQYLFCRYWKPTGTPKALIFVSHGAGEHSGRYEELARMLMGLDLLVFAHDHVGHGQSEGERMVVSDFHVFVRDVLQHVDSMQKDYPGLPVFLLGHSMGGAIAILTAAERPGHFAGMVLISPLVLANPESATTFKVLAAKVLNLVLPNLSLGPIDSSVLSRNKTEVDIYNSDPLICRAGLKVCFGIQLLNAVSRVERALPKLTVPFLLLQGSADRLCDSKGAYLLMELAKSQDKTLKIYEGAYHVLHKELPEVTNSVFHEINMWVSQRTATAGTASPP
Nature of the assay: 2-AG assay (MAGL inhibitory activity, hydrolysis of 2-arachidonoylglycerol followed by mass spectrometry). In kind it is biochemical. The conditions noted are these: 50 pM MAGL, 8 μM 2-arachidonoylglycerol, 15 min pre-incubation, 30 min incubation at RT. The protocol:
Compounds were profiled for MAGL inhibitory activity by determining the enzymatic activity by following the hydrolysis of the natural substrate 2-arachidonoylglycerol resulting in arachidonic acid, which can be followed by mass spectrometry. This assay is hereinafter abbreviated “2-AG assay”.
The 2-AG assay was carried out in 384 well assay plates (PP, Greiner Cat# 784201) in a total volume of 20 μL. Compound dilutions were made in 100% DMSO (VWR Chemicals 23500.297) in a polypropylene plate in 3-fold dilution steps to give a final concentration range in the assay from 12.5 μM to 0.8 pM. 0.25 μL compound dilutions (100% DMSO) were added to 9 μL MAGL in assay buffer (50 mM TRIS (GIBCO, 15567-027), 1 mM EDTA (Fluka, 03690-100 ml), 0.01% (v/v) Tween. After shaking, the plate was incubated for 15 min at RT. To start the reaction, 10 μL 2-arachidonoylglycerol in assay buffer was added. The final concentrations in the assay was 50 pM MAGL and 8 μM 2-arachidonoylglyerol. After shaking and 30 min incubation at RT, the reaction was quenched by the addition of 40 μL of acetonitrile containing 4 μM of d8-arachidonic acid. The amount of arachidonic acid was traced by an online SPE system (Agilent Rapidfire) coupled to a triple quadrupole mass spectrometer (Agilent 6460). A C18 SPE cartridge (G9205A) was used in an acetonitrile/water liquid setup. The mass spectrometer was operated in negative electrospray mode following the mass transitions 303.1→259.1 for arachidonic acid and 311.1→267.0 for d8-arachidonic acid. The activity of the compounds was calculated based on the ratio of intensities [arachidonic acid/d8-arachidonic acid].

`O=C1CO[C@H]2CCN(C(=O)N3C[C@H]4C[C@@H]3C[C@@H]4OCc3cc4c(cn3)CCCC4)C[C@H]2N1` (relative stereo) [Example 9, (4aR,8aS)-6-[rel-(1R,4R,5S)-5-(5,6,7,8-tetrahydroisoquinolin-3-ylmethoxy)-2-azabicyclo[2.2.1]heptane-2-carbonyl]-4,4a,5,7,8,8a-hexahydropyrido[4,3-b][1,4]oxazin-3-one] returned an IC50 of 76 nM.

The compound `O=C1CO[C@H]2CCN(C(=O)N3C[C@@H]4C[C@H](OCc5ccc(C(F)(F)F)cc5F)[C@H]3C4)C[C@H]2N1` (relative stereo) [Example 18, (4aR,8aS)-6-[rel-(1R,4S,6S)-6-[[2-fluoro-4-(trifluoromethyl)phenyl]methoxy]-2-azabicyclo[2.2.1]heptane-2-carbonyl]-4,4a,5,7,8,8a-hexahydropyrido[4,3-b][1,4]oxazin-3-one] came in with an IC50 of 1050 nM.

On to `O=C1CO[C@H]2CCN(C(=O)N3C[C@H]4C[C@@H]3[C@H](OCc3ccc(C(F)(F)F)cc3F)C4)C[C@H]2N1` (relative stereo) [Example 19, (4aR,8aS)-6-[rel-(1R,4S,6R)-6-[[2-fluoro-4-(trifluoromethyl)phenyl]methoxy]-2-azabicyclo[2.2.1]heptane-2-carbonyl]-4,4a,5,7,8,8a-hexahydropyrido[4,3-b][1,4]oxazin-3-one], for which the IC50 came out at 1140 nM.

Regarding `O=C1CO[C@H]2CCN(C(=O)N3CC4CC(Oc5ccccc5Cl)CC4C3)C[C@H]2N1` (stereo partly drawn) [Example 1, (4aR,8aS)-6-(5-(2-chlorophenoxy)-3,3a,4,5,6,6a-hexahydro-1H-cyclopenta[c]pyrrole-2-carbonyl)-4,4a,5,7,8,8a-hexahydropyrido[4,3-b][1,4]oxazin-3-one], 8.9 nM corresponded to half-maximal inhibition (IC50).

`Cc1ccccc1OC1CC2CN(C(=O)N3CC[C@@H]4OCC(=O)N[C@@H]4C3)CC2C1` (stereo partly drawn) [Example 2, (4aR,8aS)-6-(5-(2-methylphenoxy)-3,3a,4,5,6,6a-hexahydro-1H-cyclopenta[c]pyrrole-2-carbonyl)-4,4a,5,7,8,8a-hexahydropyrido[4,3-b][1,4]oxazin-3-one] displayed an IC50 of 19.8 nM.

For `O=C1CO[C@H]2CCN(C(=O)N3CC4CN(S(=O)(=O)c5ccccc5)CC4C3)C[C@H]2N1` (stereo partly drawn) [Example 3, (4aR,8aS)-6-(5-(benzenesulfonyl)-1,3,3a,4,6,6a-hexahydropyrrolo[3,4-c]pyrrole-2-carbonyl)-4,4a,5,7,8,8a-hexahydropyrido[4,3-b][1,4]oxazin-3-one], half-maximal inhibition (IC50) was put at 2280 nM.

For `O=C1CO[C@H]2CCN(C(=O)N3CC4CN(S(=O)(=O)c5ccc(C(F)(F)F)cc5)CC4C3)C[C@H]2N1` (stereo partly drawn) [Example 4, (4aR,8aS)-6-(5-[4-(trifluoromethyl)phenyl]sulfonyl-1,3,3a,4,6,6a-hexahydropyrrolo[3,4-c]pyrrole-2-carbonyl)-4,4a,5,7,8,8a-hexahydropyrido[4,3-b][1,4]oxazin-3-one], the midpoint of inhibition, the IC50, lay at 929 nM.

The compound `O=C1CO[C@H]2CCN(C(=O)N3CC4CN(S(=O)(=O)c5ccc(F)cc5Cl)CC4C3)C[C@H]2N1` (stereo partly drawn) [Example 5, (4aR,8aS)-6-(5-(2-chloro-4-fluoro-phenyl)sulfonyl-1,3,3a,4,6,6a-hexahydropyrrolo[3,4-c]pyrrole-2-carbonyl)-4,4a,5,7,8,8a-hexahydropyrido[4,3-b][1,4]oxazin-3-one] yielded an IC50 of 676 nM.

For the compound `O=C1CO[C@H]2CCN(C(=O)N3C[C@@H]4[C@H](C3)[C@H]4c3ccn(-c4ccc(F)cc4)n3)C[C@H]2N1` [Example 6, (4aR,8aS)-6-[(1R,5S,6r)-6-[1-(4-fluorophenyl)pyrazol-3-yl]-3-azabicyclo[3.1.0]hexane-3-carbonyl]-4,4a,5,7,8,8a-hexahydropyrido[4,3-b][l,4]oxazin-3-one], inhibition was half-maximal at 261 nM (IC50).

As to `O=C1CO[C@H]2CCN(C(=O)N3C[C@@H]4[C@H](C3)[C@H]4c3ccn(-c4ccc(F)c(C(F)(F)F)c4)n3)C[C@H]2N1` [Example 7, (4aR,8aS)-6-[(1R,5S,6r)-6-[1-[4-fluoro-3-(trifluoromethyl)phenyl]pyrazol-3-yl]-3-azabicyclo[3.1.0]hexane-3-carbonyl]-4,4a,5,7,8,8a-hexahydropyrido[4,3-b][1,4]oxazin-3-one], half-maximal inhibition (IC50) was put at 45.3 nM.

`O=C1CO[C@H]2CCN(C(=O)N3C[C@@H]4[C@H](C3)[C@H]4c3ccn(-c4ccc(F)cc4Cl)n3)C[C@H]2N1` [Example 8, (4aR,8aS)-6-[(1R,5S,6r)-6-[1-(2-chloro-4-fluoro-phenyl)pyrazol-3-yl]-3-azabicyclo[3.1.0]hexane-3-carbonyl]-4,4a,5,7,8,8a-hexahydropyrido[4,3-b][1,4]oxazin-3-one] came in with an IC50 of 112 nM.

Regarding `O=C1CO[C@H]2CCN(C(=O)N3C[C@@H]4[C@@H](COc5ccc(F)cc5Cl)[C@@H]4C3)C[C@H]2N1` [Example 12, (4aR,8aS)-6-[(1R,5S,6r)-6-[(2-chloro-4-fluoro-phenoxy)methyl]-3-azabicyclo[3.1.0]hexane-3-carbonyl]-4,4a,5,7,8,8a-hexahydropyrido[4,3-b][1,4]oxazin-3-one], inhibition was half-maximal at 6.3 nM (IC50).

For the compound `O=C1CO[C@H]2CCN(C(=O)N3CC4CCC(C3)C4COc3ccc(F)cc3Cl)C[C@H]2N1` (stereo partly drawn) [Example 13, (4aR,8aS)-6-[8-[(2-chloro-4-fluoro-phenoxy)methyl]-3-azabicyclo[3.2.1]octane-3-carbonyl]-4,4a,5,7,8,8a-hexahydropyrido[4,3-b][1,4]oxazin-3-one], the IC50 was 5.1 nM.

Take `O=C1CO[C@H]2CCN(C(=O)N3CC4CC(Oc5ccc(F)cc5Cl)CC4C3)C[C@H]2N1` (stereo partly drawn) [Example 14, (4aR,8aS)-6-[5-(2-chloro-4-fluoro-phenoxy)-3,3a,4,5,6,6a-hexahydro-1H-cyclopenta[c]pyrrole-2-carbonyl]-4,4a,5,7,8,8a-hexahydropyrido[4,3-b][1,4]oxazin-3-one]: the IC50 was found to be 3.5 nM.

Take `O=C1CO[C@H]2CCN(C(=O)N3CC4CC(OCc5ccc(F)cc5Cl)CC4C3)C[C@H]2N1` (stereo partly drawn) [Example 15, (4aR,8aS)-6-[5-[(2-chloro-4-fluoro-phenyl)methoxy]-3,3a,4,5,6,6a-hexahydro-1H-cyclopenta[c]pyrrole-2-carbonyl]-4,4a,5,7,8,8a-hexahydropyrido[4,3-b][1,4]oxazin-3-one]: it took 11 nM to reach half-maximal inhibition (IC50).

`O=C1CO[C@H]2CCN(C(=O)N3CC4CC(OCc5ccc(C(F)(F)F)cc5F)CC4C3)C[C@H]2N1` (stereo partly drawn) [Example 16, (4aR,8aS)-6-[5-[[2-fluoro-4-(trifluoromethyl)phenyl]methoxy]-3,3a,4,5,6,6a-hexahydro-1H-cyclopenta[c]pyrrole-2-carbonyl]-4,4a,5,7,8,8a-hexahydropyrido[4,3-b][1,4]oxazin-3-one] registered an IC50 of 85.9 nM.

In the case of `O=C1CO[C@H]2CCN(C(=O)N3CC4CC(Oc5ccc(C(F)(F)F)cc5F)CC4C3)C[C@H]2N1` (stereo partly drawn) [Example 17, (4aR,8aS)-6-[5-[2-fluoro-4-(trifluoromethyl)phenoxy]-3,3a,4,5,6,6a-hexahydro-1H-cyclopenta[c]pyrrole-2-carbonyl]-4,4a,5,7,8,8a-hexahydropyrido[4,3-b][1,4]oxazin-3-one], half-maximal inhibition (IC50) was put at 4.7 nM.

Turning to `O=C1CO[C@H]2CCN(C(=O)N3CC4CC(C3)C4OCc3ccc(C(F)(F)F)cc3F)C[C@H]2N1` (stereo partly drawn) [Example 22, (4aR,8aS)-6-[6-[[2-fluoro-4-(trifluoromethyl)phenyl]methoxy]-3-azabicyclo[3.1.1]heptane-3-carbonyl]-4,4a,5,7,8,8a-hexahydropyrido[4,3-b][1,4]oxazin-3-one], the IC50 was determined as 217 nM.

On to `O=C1CO[C@H]2CCN(C(=O)N3[C@@H]4COC[C@H]3C[C@@H](OCc3ccc(C(F)(F)F)cc3F)C4)C[C@H]2N1` [Example 23, (4aR,8aS)-6-[(1S,5R)-7-[[2-fluoro-4-(trifluoromethyl)phenyl]methoxy]-3-oxa-9-azabicyclo[3.3.1]nonane-9-carbonyl]-4,4a,5,7,8,8a-hexahydropyrido[4,3-b][1,4]oxazin-3-one], for which 628 nM corresponded to half-maximal inhibition (IC50).

On to `O=C1CO[C@H]2CCN(C(=O)N3[C@@H]4CC[C@H]3C[C@H](OCc3ccc(C(F)(F)F)cc3F)C4)C[C@H]2N1` [Example 24, (4aR,8aS)-6-[(1S,5R)-3-[[2-fluoro-4-(trifluoromethyl)phenyl]methoxy]-8-azabicyclo[3.2.1]octane-8-carbonyl]-4,4a,5,7,8,8a-hexahydropyrido[4,3-b][1,4]oxazin-3-one], for which 1.4 nM corresponded to half-maximal inhibition (IC50).
